In US7678918B2, “Intermediates for imidazonaphthyridines” (3M Innovative Properties Company, priority 1997, dated 2010):
Counter-ions that a name gives are not always drawn.

Columns and labels:
[1] = test system: IFN; assay: Cytokine Induction in Human Cells: interferon (IFN) secreted by PBMCs, A549/encephalomyocarditis bioassay; type: cell-based; details: 18 to 24 hours; note: call rule not given here
How it was run: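 Human PBMCs from healthy donors at 1.5-2×10^6 cells/mL in RPMI with 10% FBS, exposed to compounds (typically 0.1 to 100 μM, ≤1% DMSO) for 18 to 24 h at 37° C. Secreted IFN measured by A549/encephalomyocarditis virus cytopathic-effect bioassay, in alpha reference units/mL against NIH human leukocyte IFN standard.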

[2] = test system: interferon α; assay: Interferon (α) Induction in Human Cells (PBM's, 48 hours, A549 bioassay); type: cell-based; set-up: key: +: indicates that the compound induced interferon α at that particular concentration; −: indicates that the compound did not induce interferon α at that particular concentration; ±: indicates that the results were equivocal at that particular concentration; details: 48 hours incubation
Protocol: An in vitro human blood cell system was used to assess interferon induction by compounds of the invention. Activity is based on the measurement of interferon secreted into culture media. Interferon is measured by bioassay.
Whole blood was collected by venipuncture into EDTA vacutainer tubes. Peripheral blood mononuclear cells (PBM's) were separated from whole blood by using either LeucoPREP™ Brand Cell Separation Tubes (available from Becton Dickinson) or Ficoll-Paque® solution (available from Pharmacia LKB Biotechnology Inc, Piscataway, N.J.). The PBM's were suspended at 1×10^6/mL in RPMI 1640 media (available from GIBCO, Grand Island, N.Y.) containing 25 mM HEPES (N-2-hydroxyethylpiperazine-N′-2-ethanesulfonic acid) and L-glutamine (1% penicillin-streptomycin solution added) with 10% heat inactivated (56° C. for 30 minutes) autologous serum added. 200 μL portions of PBM suspension were added to 96 well (flat bottom) MicroTest III sterile tissue culture plates.
The compounds were solubilized in ethanol, dimethyl sulfoxide or tissue culture water then diluted with tissue culture water, 0.01N sodium hydroxide or 0.01N hydrochloric acid (The choice of solvent will depend on the chemical characteristics of the compound being tested.). Ethanol or DMSO concentration should not exceed a final concentration of 1% for addition to the culture wells. Compounds were initially tested in a concentration range of from about 0.1 μg/mL to about 5 μg/mL. Compounds which show induction at a concentration of 0.5 μg/mL were then tested in a wider concentration range.
The solution of test compound was added in a volume (less than or equal to 50 μL) to the wells containing 200 μL of diluted whole blood or of PBM's in media. Solvent and/or media was added to control wells (wells with no test compound) and as needed to adjust the final volume of each well to 250 μL. The plates were covered with plastic lids, vortexed gently and then incubated for 48 hours at 37° C. with a 5% carbon dioxide atmosphere.
Following incubation, the plates were covered with parafilm and then centrifuged at 1000 rpm for 10 to 15 minutes at 4° C. in a Damon IEC Model CRU-5000 centrifuge. Media (about 200 μL) was removed from 4 to 8 wells and pooled into 2 mL sterile freezing vials. Samples were maintained at −70° C. until analysis.
Interferon was determined by bioassay using A549 human lung carcinoma cells challenged with encephalomyocarditis. The details of the bioassay method have been described by G. L. Brennan and L. H. Kronenberg in “Automated Bioassay of Interferons in Micro-test Plates”, Biotechniques, June/July 78, 1983, incorporated herein by reference. Briefly stated the method is as follows: interferon dilutions and A549 cells are incubated at 37° C. for 12 to 24 hours. The incubated cells are infected with an inoculum of encephalomyocarditis virus. The infected cells are incubated for an additional period at 37° C. before quantifying for viral cytopathic effect. The viral cytopathic effect is quantified by staining followed by spectrophotometric absorbance measurements. Results are expressed as alpha reference units/mL based on the value obtained for NIH HU IF-L standard. The interferon was identified as essentially all interferon alpha by testing in checkerboard neutralization assays against rabbit anti-human interferon (beta) and goat anti-human interferon (alpha) using A549 cell monolayers challenged with encephalomyocarditis virus.

[3] = test system: TNF; assay: Cytokine Induction in Human Cells: tumor necrosis factor (TNF) secreted by PBMCs, ELISA; type: cell-based; details: 18 to 24 hours; note: call rule not given here
How it was run: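 Human donor PBMCs at 1.5-2×10^6 cells/mL in RPMI with 10% FBS were exposed to compound, generally at 0.1 to 100 μM (≤1% DMSO final), for 18 to 24 h at 37 °C. Secreted TNF in supernatant was measured by ELISA and reported as pg/mL.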

| melting point | SMILES | IFN induction ([1]; Dose Concentration 0.1 μM) | IFN induction ([1]; Dose Concentration 1.0 μM) | IFN induction ([1]; Dose Concentration 10.0 μM) | IFN induction ([1]; Dose Concentration 100.0 μM) | Interferon (α) Induction in Human Cells ([2]; Dose Concentration 0.01 μg/mL) | Interferon (α) Induction in Human Cells ([2]; Dose Concentration 0.05 μg/mL) | Interferon (α) Induction in Human Cells ([2]; Dose Concentration 0.10 μg/mL) | Interferon (α) Induction in Human Cells ([2]; Dose Concentration 0.50 μg/mL) | Interferon (α) Induction in Human Cells ([2]; Dose Concentration 1.0 μg/mL) | Interferon (α) Induction in Human Cells ([2]; Dose Concentration 5.0 μg/mL) | Interferon (α) Induction in Human Cells ([2]; Dose Concentration 10.0 μg/mL) | Interferon (α) Induction in Human Cells ([2]; Dose Concentration 25.0 μg/mL) | Interferon (α) Induction in Human Cells ([2]; Dose Concentration 50.0 μg/mL) | TNF induction ([3]; Dose Concentration 0.1 μM) | TNF induction ([3]; Dose Concentration 1.0 μM) | TNF induction ([3]; Dose Concentration 10.0 μM) | TNF induction ([3]; Dose Concentration 100.0 μM) |
| --- | --- | --- | --- | --- | --- | --- | --- | --- | --- | --- | --- | --- | --- | --- | --- | --- | --- | --- |
| 205 to 212 °C | CCOCC(=O)Nc1cnc2cccnc2c1NCc1ccccc1.Cl |  |  |  |  |  |  |  |  |  |  |  |  |  |  |  |  |  |
| 183 to 185 °C | CCCCc1nc2c(N)nc3cccnc3c2n1CCNC(=O)CCc1ccccc1 (as salt: hydrochloride) [Example 96, N^1-[2-(4-Amino-2-butyl-1H-imidazo[4,5-c][1,5]naphthyridin-1-yl)ethyl]-3-phenylpropanamide Hydrochloride] |  |  |  |  |  |  |  |  |  |  |  |  |  |  |  |  |  |
| 247 to 248 °C (dec.) | O.Oc1cc2nnnn2c2cnccc12 (hydrate or solvate) |  |  |  |  |  |  |  |  |  |  |  |  |  |  |  |  |  |
|  | CC(C)Cn1cnc2c(N)nc3ncccc3c21 [Example 9, 1-(2-Methylpropyl)-1H-imidazo[4,5-c][1,8]naphthyridin-4-amine hydrate] | ± | − | + | − | − | − | − | − | − | − | − | − | − | − | − | − | − |
|  | CCCCc1nc2c(N)nc3ncccc3c2n1CC(C)C [Example 12, 2-Butyl-1-(2-methylpropyl)-1H-imidazo[4,5-c][1,8]naphthyridin-4-amine] |  | + | + | + | − | − | + | + | + | + | + | + | + |  | + | + | + |
|  | CCCCc1nc2c(N)nc3c(c2n1CC(C)C)CCCN3 [Example 13, 2-Butyl-6,7,8,9-tetrahydro-1-(2-methylpropyl) 1H-imidazo[4,5-c][1,8]naphthyridin-4-amine] |  | + | + | + | − | + | + | + | + | + | + | + | + |  | + | + | + |
|  | CCCCc1nc2c(N)nc3cccnc3c2n1CC(C)C [Example 39, 2-Butyl-1-(2-methylpropyl)-1H-imidazo[4,5-c][1,5]naphthyridin-4-amine] |  | + | + | − | − | − | + | + | + | + | + | + | + |  | + | + | − |
|  | CCCCc1nc2c(N)nc3c(c2n1CC(C)C)NCCC3 [Example 40, 6,7,8,9-Tetrahydro-2-butyl-1-(2-methylpropyl)-1H-imidazo[4,5-c][1,5]naphthyridin-4-amine] |  | + | + | ± | − | + | + | + | + | + | + | + | + |  | + | + | + |
|  | CCCCc1nc2c(N)nc3cccnc3c2n1CCNC(=O)c1cnc(C)cn1 [Example 205] | + | + | + | + |  |  |  |  |  |  |  |  |  | − | + | + | + |
|  | CCCCc1nc2c(N)nc3cccnc3c2n1CCNC(=O)c1ccc(Br)o1 [Example 206] | + | + | + | + |  |  |  |  |  |  |  |  |  | − | + | + | + |
|  | CCCCc1nc2c(N)nc3cccnc3c2n1CCNC(=O)Cc1cccnc1 [Example 207] | − | − | + | + |  |  |  |  |  |  |  |  |  | − | − | + | + |
|  | CCCCc1nc2c(N)nc3cccnc3c2n1CCNC(=O)CCc1cccnc1 [Example 208] | − | − | + | + |  |  |  |  |  |  |  |  |  | − | − and ± | − and + | − and + |
|  | CCCCc1nc2c(N)nc3cccnc3c2n1CCNC(=O)CCn1cc([N+](=O)[O-])nc1C [Example 209] | − | − | + | + |  |  |  |  |  |  |  |  |  | − | − | + | + |
|  | CCCCc1nc2c(N)nc3cccnc3c2n1CCNC(=O)C1CC(=O)N(Cc2ccc(Cl)cc2)C1 (stereo not drawn) [Example 210] | − | − | + | + |  |  |  |  |  |  |  |  |  | + | + | + | + |
|  | CCCCc1nc2c(N)nc3cccnc3c2n1CCNC(=O)CCN1C(=O)c2ccccc2C1=O [Example 211] | − | − | + | + |  |  |  |  |  |  |  |  |  | − | − | + | + |
|  | CCCCc1nc2c(N)nc3cccnc3c2n1CCNC(=O)CCC(=O)c1cccs1 [Example 212] | − | + | + | + |  |  |  |  |  |  |  |  |  | − | + | + | + |
